Reference: US20240327388A1, “QUINOLINAMINE COMPOUND, PREPARATION METHOD THEREFOR AND APPLICATION THEREOF IN PHARMACEUTICALS” (JIANGSU HENGRUI PHARMACEUTICALS CO., LTD., priority 2021, published 2024)

The compounds below were run on miR-124 (assay: Up-regulation of miR-124 in CD3/CD28 antibody-activated T cells (SYBR green quantitative PCR)). Settings: T-cell, 72 h; activated human T cells, 1 μM compound, 3 days, relative to DMSO, U6 internal reference.
Format: cell-based
Experimental: The effect of the compound on miR-124 expression levels was detected in CD3/CD28 antibody-activated T cells. After the activated T cells were treated with the compound, the total cellular RNA was extracted, the cDNA obtained from reverse transcription was used as a template, and quantification was performed by an SYBR green fluorescence quantitative PCR method using a specific miR-124 primer.
Isolation of T cells: Purchased human peripheral blood mononuclear cells (PBMCs) were counted, centrifuged, and washed once with a separation buffer (PBS, pH 7.4, containing 0.5% BSA and 2 mM EDTA), and the supernatant was discarded. The components were added in an amount of 40 μL of a buffer and 10 μL of pan T Cell Biotin-Antibody Cocktail per 1×10^7 cells, and the pellet was resuspended. The resulting suspension was mixed and incubated in a refrigerator at 4° C. for 5 min. After the incubation was completed, the components were added in an amount of 30 μL of a buffer and 20 μL of Pan T Cell MicroBeads Cocktail per 1×10^7 cells, and the resulting suspension was mixed and incubated in a refrigerator at 4° C. for 10 min. The separation column (LS column) was rinsed with 3 mL of a cell separation buffer in advance, loaded with the above cell suspension, and then repeatedly washed 3 times with 1 mL of the cell separation buffer. The effluent cell fluid was collected in a 15 mL centrifuge tube, thus giving the enriched T cells. The cells were counted and added at a density of 1×10^6 cells/mL to an RPMI1640 medium (complete medium) containing 10% FBS and 40) U/mL IL-2, and the resulting mixture was kept on ice for later use.
Activation of T cells: The corresponding Dynabead Human T-Activator CD3/CD28 for T Cell Expansion and Activation were added to a 1.5 mL centrifuge tube in an amount of 25 μL of the activated magnetic beads per 1×10^6 cells, which should be shaken on a shaker for about 30 s before aspiration. In the centrifuge tube, at a volume ratio of greater than 1:1, the activated magnetic beads were washed 3 times with a medium, and all the washing liquid was removed after the last washing. A complete medium with a volume equal to the starting volume was added to resuspend the activated magnetic beads. The washed activated magnetic beads were added to the cell resuspension, and the resulting mixture was well mixed. The cells were added to a six-well plate at 3 mL/well and incubated in a cell incubator at 37° C. with 5% CO2 for 2 days.
Compound treatment: A 20 mM compound stock solution was diluted to 200 μM with DMSO, and then diluted 4-fold to 50 μM (50)×) with a complete medium. The resulting mixture was well mixed for later use. 4-fold diluted DMSO (25% DMSO) was added to negative control wells. T cells were activated for two days and pipetted uniformly. The 1.5 mL centrifuge tube was mounted on a magnetic rack, and the activated magnetic beads were removed. The cell suspension was collected, and the cells were counted and then centrifuged at 300×g for 10 min to discard the supernatant. The cells were then resuspended to 1.02×10^6 cells/mL, and 980 μL of the cell suspension and 20 μL of the 50× compound were added to each 24-well plate, with the final concentration of the compound being 1 μM. The cells were placed in a cell incubator at 37° C. with 5% CO2 for another 3 days.
RNA extraction: T cells were collected by centrifugation at 1500 rpm for 3 min, washed once with PBS, and centrifuged again to discard the supernatant. The total cellular RNA was extracted using a microRNA extraction kit according to the package insert. 700 μL of a Trizol cell lysis buffer was added to the cell pellet, and the resulting mixture was pipetted uniformly and left at room temperature for 5 min. 140 μL of chloroform was added, and the resulting mixture was well mixed with shaking and left to stand at room temperature for 3 min. The chloroform-cell lysis buffer mixture was centrifuged at 12000×g and 4° C. for 15 min. […]
With Clc1cccc2ccc(Nc3ccc4c(c3)CCO4)nc12 [Compound 3, 8-Chloro-N-(2,3-dihydrobenzofuran-5-yl)quinolin-2-amine] the fold induction at 1 µM was 5.2. Clc1cccc2ccc(Nc3ccc4c(c3)CCC4)nc12 [Compound 4, 8-Chloro-N-(2,3-dihydro-1H-inden-5-yl)quinolin-2-amine] gave a fold induction at 1 µM of 5.4. For CC(=O)N1CCc2cc(Nc3ccc4cccc(Cl)c4n3)ccc21 [Compound 5, 1-(5-((8-Chloroquinolin-2-yl)amino)indolin-1-yl)ethan-1-one], the fold induction at 1 µM was 1.4. Work on Clc1cccc2ccc(Nc3ccc4c(c3)OCCO4)nc12 [Compound 6, 8-Chloro-N-(2,3-dihydrobenzo[b][1,4]dioxin-6-yl)quinolin-2-amine] yielded a fold induction at 1 µM of 2.7. Compound Clc1cccc2ccc(Nc3ccc4c(c3)CCCC4)nc12 [Compound 7, 8-Chloro-N-(5,6,7,8-tetrahydronaphthalen-2-yl)quinolin-2-amine] has a fold induction at 1 µM of 5.2. With FC1(F)Oc2ccc(Nc3ccc4cccc(Cl)c4n3)cc2OC1(F)F [Compound 8, 8-Chloro-N-(2,2,3,3-tetrafluoro-2,3-dihydrobenzo[b][1,4]dioxin-6-yl)quinolin-2-amine] the fold induction at 1 µM was 5.4. With Clc1cccc2ccc(Nc3cnc4c(c3)OCO4)nc12 [Compound 9, N-(8-Chloroquinolin-2-yl)-[1,3]dioxolo[4,5-b]pyridin-6-amine] the fold induction at 1 µM was 2.4. Clc1cccc2ccc(Nc3ccc4c(c3)OCO4)nc12 [Compound 10, N-(Benzo[d][1,3]dioxol-5-yl)-8-chloroquinolin-2-amine] was tested, and the fold induction at 1 µM was 2.1. Compound [2H]C1([2H])Oc2ccc(Nc3ccc4cccc(Cl)c4n3)cc2O1 [Compound 11, N-(Benzo[d][1,3]dioxol-5-yl-2,2-d2)-8-chloroquinolin-2-amine] has a fold induction at 1 µM of 2.4. CC1(C)Oc2ccc(Nc3ccc4cccc(Cl)c4n3)cc2O1 [Compound 12, 8-Chloro-N-(2,2-dimethylbenzo[d][1,3]dioxol-5-yl)quinolin-2-amine] was tested, and the fold induction at 1 µM was 1.8. CC1(C)Cc2cc(Nc3ccc4cccc(Cl)c4n3)ccc2O1 [Compound 13, 8-Chloro-N-(2,2-dimethyl-2,3-dihydrobenzofuran-5-yl)quinolin-2-amine] was tested, and the fold induction at 1 µM was 2.8. With FC1(F)Oc2ccc(Nc3ccc4c5c(cc(Cl)c4n3)CCC5)cc2O1 [Compound 14, 5-Chloro-N-(2,2-difluorobenzo[d][1,3]dioxol-5-yl)-8,9-dihydro-7H-cyclopenta[f]quinolin-3-amine] the fold induction at 1 µM was 1.5. Work on Cc1ccc2ccc(Nc3ccc4c(c3)OC(F)(F)O4)nc2c1Cl [Compound 15, 8-Chloro-N-(2,2-difluorobenzo[d][1,3]dioxol-5-yl)-7-methylquinolin-2-amine] yielded a fold induction at 1 µM of 5.7. COc1ccc2ccc(Nc3ccc4c(c3)OC(F)(F)O4)nc2c1Cl [Compound 16, 8-Chloro-N-(2,2-difluorobenzo[d][1,3]dioxol-5-yl)-7-methoxyquinolin-2-amine] was tested, and the fold induction at 1 µM was 3.9. With FC1(F)Oc2ccc(Nc3ccc4ccc(Cl)c(Cl)c4n3)cc2O1 [Compound 17, 7,8-Dichloro-N-(2,2-difluorobenzo[d][1,3]dioxol-5-yl)quinolin-2-amine] the fold induction at 1 µM was 5.9. Cc1cc(Cl)c2nc(Nc3ccc4c(c3)OC(F)(F)O4)ccc2c1 [Compound 18, 8-Chloro-N-(2,2-difluorobenzo[d][1,3]dioxol-5-yl)-6-methylquinolin-2-amine] showed a fold induction at 1 µM of 2.7. Work on FC1(F)Oc2ccc(Nc3ccc4cc(Cl)cc(Cl)c4n3)cc2O1 [Compound 20, 6,8-Dichloro-N-(2,2-difluorobenzo[d][1,3]dioxol-5-yl)quinolin-2-amine] yielded a fold induction at 1 µM of 5. In the case of O=C(O)[C@H]1O[C@@H](N(c2ccc3c(c2)OCO3)c2ccc3cccc(Cl)c3n2)[C@H](O)[C@@H](O)[C@@H]1O [Compound 21, (2S,3S,4S,5R,6R)-6-(Benzo[d][1,3]dioxol-5-yl(8-chloroquinolin-2-yl)amino)-3,4,5-trihydroxytetrahydro-2H-pyran-2-carboxylic acid], the fold induction at 1 µM is reported as 1.9. O=C(O)[C@H]1O[C@@H](N(c2ccc3c(c2)OCCO3)c2ccc3cccc(Cl)c3n2)[C@H](O)[C@@H](O)[C@@H]1O [Compound 22, (2S,3S,4S,5R,6R)-6-((8-Chloroquinolin-2-yl)(2,3-dihydrobenzo[b][1,4]dioxin-6-yl)amino)-3,4,5-trihydroxytetrahydro-2H-pyran-2-carboxylic acid] showed a fold induction at 1 µM of 1.7. For Cc1ccc(Cl)c2nc(Nc3ccc4c(c3)OC(F)(F)O4)ccc12 [Compound 23, 8-Chloro-N-(2,2-difluorobenzo[d][1,3]dioxol-5-yl)-5-methylquinolin-2-amine], the fold induction at 1 µM was 2.3. COc1ccc(Cl)c2nc(Nc3ccc4c(c3)OC(F)(F)O4)ccc12 [Compound 24, 8-Chloro-N-(2,2-difluorobenzo[d][1,3]dioxol-5-yl)-5-methoxyquinolin-2-amine] was tested, and the fold induction at 1 µM was 3. FC1(F)Oc2ccc(Nc3ccc4c(Cl)ccc(Cl)c4n3)cc2O1 [Compound 25, 5,8-Dichloro-N-(2,2-difluorobenzo[d][1,3]dioxol-5-yl)quinolin-2-amine] showed a fold induction at 1 µM of 6.7. With N#Cc1cc(Cl)c2nc(Nc3ccc4c(c3)OC(F)(F)O4)ccc2c1 [Compound 26, 8-Chloro-2-((2,2-difluorobenzo[d][1,3]dioxol-5-yl)amino)quinoline-6-carbonitrile] the fold induction at 1 µM was 2.4.
